Patent US7067491B2, “Heterocyclic compounds having elastase-inhibiting activity and intermediates thereof” (Dainippon Pharmaceutical Co., Ltd., priority 2002, dated 2006)

Columns and labels:
[1] = target: T1, human neutrophil elastase (Homo sapiens, UniProt P08246); assay: Inhibitory activity on human neutrophil elastase (HNE) in vitro; type: biochemical; conditions: human neutrophil elastase 0.2 U/ml, substrate MeO-Suc-Ala-Ala-Pro-Val-pNA 0.5 mM, 37° C., pH 7.5
T1 construct: purchased Elastine Product Co., Inc
T1 sequence (P08246 30-267): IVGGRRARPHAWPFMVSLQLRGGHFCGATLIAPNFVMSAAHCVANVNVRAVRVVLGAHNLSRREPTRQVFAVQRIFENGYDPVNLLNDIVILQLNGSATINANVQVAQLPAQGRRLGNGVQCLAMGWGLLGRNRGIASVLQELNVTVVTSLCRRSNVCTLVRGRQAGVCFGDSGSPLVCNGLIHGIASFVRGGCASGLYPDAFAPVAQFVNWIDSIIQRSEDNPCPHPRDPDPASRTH
Procedure: Experiment 1: Inhibitory Activity on Human Neutrophil Elastase (HNE)
The inhibitory activity of the compound of the present invention in vitro on human neutrophil elastase was examined by this experiment.
To 100 mM of HEPES {[N-(2-hydroxyethyl)piperazine-N′-(2-ethanesulfonic acid)], pH 7.5}buffer solution containing 1M NaCl and 0.001% Brij-35 (polyoxyethylene lauryl ether) were added human neutrophil elastase (final concentration: 0.2 U/ml, Elastine Product Co., Inc.) and the compound of the present invention (dissolved in 10% dimethyl sulfoxide; final concentration: 10^−10˜3×10^−3 M). The mixture was pre-incubated for 3 minutes at 37° C. Thereto was added MeO-Suc-Ala-Ala-Pro-Val-pNA (methoxysuccinyl-alanyl-alanyl-prolyl-valyl-p-nitroanilide (Sigma Chemical Co.)) as a substrate to give the final concentration of 0.5 mM, and the reaction was initiated. Under this condition, the producing rate of the reaction product, p-nitroanilide (pNA) at 37° C. was estimated by measuring the absorbance at 404 nm for 3 minutes.
The inhibitory activity of the compound of the present invention against human neutrophil elastase (HNE) is calculated according to the following formula.
The concentration of the compound of the present invention to be required to achieve 50% HNE inhibition (i.e., IC50) was calculated based on the concentration-inhibitory rate curve of the compound of the present invention.
As a comparative compound, N-[(1S)-2-((2S)-2-{N-[(1S)-3,3,3-trifluoro-1-(methylethyl)-2-oxopropyl]carbamoyl}pyrrolidinyl)-1-(methylethyl)-2-oxoethyl](imidazol-4-yl)carboxamide was used, and the same assay was carried out. The planar structure of this compound was the same as one of compound (22) disclosed in J. Med. Chem., 1997, 40, 1876–1885.

[2] = test system: pulmonary hemorrhage induced by human neutrophil elastase (HNE); assay: Inhibitory activity on pulmonary hemorrhage induced by human neutrophil elastase (HNE); type: in vivo; conditions: hamster; for Pulmonary hemorrhage inhibitory rate (%): dose 3 mg/kg orally, 30 minutes prior to HNE; for ED50: Homo sapiens, Neutrophil, po
Excerpt: Experiment 3: Inhibitory Activity on Pulmonary Hemorrhage Induced by Human Neutrophil Elastase (HNE)
This experiment tested on in vivo efficacy of the compound of the present invention. When human neutrophil elastase is intratracheally administered to a hamster, the pulmonary hemorrhage is induced. A definite time later after administration of the elastase, in the bronchoalveolar lavage fluid by washing lung via trachea, hemoglobin is detected.
Hamsters (Syrian strain, 7–10 weeks old male) were divided into groups consisting of 3 to 6, and each group was treated as follows:
(A) A Group to which the Compound of the Present Invention was not Administered (Disease Control):
Physiological saline solution (0.2 ml) in which 25 unit of human neutrophil elastase (Elastin Product Co., Inc.) was dissolved was intratracheally administered to a hamster to induce the pulmonary hemorrhage. One hour later after administration of elastase, the hamsters were sacrificed by exsanquination, and alveoli were transtracheally washed twice with physiological saline (2.5 ml), and the hemoglobin concentration in the bronchoalveolar lavage fluid (5 ml) was determined by measuring the absorbance at 414 nm.
(B) A Group to which the Compound of the Present Invention was Administered:
A fixed amount of the compound of the present invention was dissolved in dimethyl sulfoxide (DMSO), and thereto was added 0.5% tragacanth gum to prepare a suspension. The suspension was orally administered to a hamster, 30 minutes prior to the administration of human neutrophil elastase (HNE) (final concentration of DMSO, 1%), and then, human neutrophil elastase was administered in the same manner as the above method (A). After 1 hour, the concentration of hemoglobin in the bronchoalveolar lavage fluid was determined in the same manner as the above method (A).
The hemorrhage inhibition activity of the compound of the present invention is represented as the hemorrhage inhibiting rate in the following formula.
The dose of the compound of the present invention to be required to achieve 50% inhibition of pulmonary hemorrhage (i.e., ED50) was calculated based on the administration dose-hemorrhage inhibiting rate curve.
As a comparative example, the same experiment was also carried out on a comparative compound used in Experiment 1.
Some of the compounds of the present invention were compared with the comparative compound on the hemorrhage inhibitory rate at the dose of 3 mg/kg.

ICR mice = assay: Acute toxicity; type: in vivo; conditions: male ICR mice (5 mice), 300 mg/kg orally, after 24 hours
Procedure: Experiment 5: Acute Toxicity
The compound of the present invention (each compound of Example 10, Example 11, Example 15, Example 25, and Example 40) was suspended in 0.5% tragacanth gum and the suspension was orally administered to 7 weeks old, male ICR mice (5 mice) at 300 mg/kg.

[3] = target: T2, porcine pancreas elastase (Sus scrofa, UniProt P00772); assay: Inhibitory activity against porcine pancreas elastase; type: biochemical; conditions: porcine pancreas elastase 40 ng/ml, substrate Suc-Ala-Ala-Ala-pNA 2.5 mM
T2 construct: purchased Elastin Products Co., Inc
T2 sequence (P00772 27-266): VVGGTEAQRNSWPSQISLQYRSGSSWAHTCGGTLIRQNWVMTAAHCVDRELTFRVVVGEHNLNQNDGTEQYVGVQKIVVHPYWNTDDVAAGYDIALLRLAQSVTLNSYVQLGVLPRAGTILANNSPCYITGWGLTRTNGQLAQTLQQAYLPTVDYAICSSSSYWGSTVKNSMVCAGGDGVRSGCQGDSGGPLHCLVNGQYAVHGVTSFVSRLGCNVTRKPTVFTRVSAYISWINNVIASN
Procedure: Experiment 2: Inhibitory Activity Against Porcine Pancreas Elastase
The inhibitory activity was measured in the same manner as experiment 1, except for using porcine pancreas elastase (Elastin Products Co., Inc., final concentration 40 ng/ml) as a target enzyme and Suc-Ala-Ala-Ala-pNA (succinyl-alanyl-alanyl-alanyl-p-nitroanilide, Peptide Research, final concentration 2.5 mM) as a substrate.

[4] = orally administered 30 minutes prior to intratracheal HNE, hemoglobin in bronchoalveolar lavage fluid after 1 hour

Structure (SMILES): COc1ccc(-n2ncc(C(=O)N[C@H](C(=O)N3CCC[C@H]3C(=O)N[C@H](C(=O)C(F)(F)F)C(C)C)C(C)C)c2C)cc1 [Example 40, N-[(1S)-2-((2S)-2-{N-[(1S)-3,3,3-trifluoro-1-(methylethyl)-2-oxopropyl]carbamoyl}pyrrolidinyl)-1-(methylethyl)-2-oxoethyl]-[5-methyl-1-(4-methoxyphenyl)pyrazol-4-yl]carboxamide]
- IC50 [1]: 8.4 nM
- Pulmonary hemorrhage inhibitory rate (%) [2]: 70%
- Acute toxicity: death or not (ICR mice): all were alive

Structure (SMILES): CC(C)[C@H](NC(=O)c1cc(C(C)(C)C)n(C)n1)C(=O)N1CCC[C@H]1C(=O)N[C@H](C(=O)C(F)(F)F)C(C)C [Example 25, N-[(1S)-2-((2S)-2-{N-[(1S)-3,3,3-trifluoro-1-(methylethyl)-2-oxopropyl]carbamoyl}pyrrolidinyl)-1-(methylethyl)-2-oxoethyl]-(5-tert-butyl-1-methylpyrazol-3-yl)carboxamide]
- Acute toxicity: death or not (ICR mice): all were alive

Structure (SMILES): Cc1nnsc1C(=O)N[C@H](C(=O)N1CCC[C@H]1C(=O)N[C@H](C(=O)C(F)(F)F)C(C)C)C(C)C [Example 3, N-[(1S)-2-((2S)-2-{N-[(1S)-3,3,3-trifluoro-1-(methylethyl)-2-oxopropyl]carbamoyl}pyrrolidinyl)-1-(methylethyl)-2-oxoethyl]-(4-methyl-1,2,3-thiadiazol-5-yl)carboxamide]
- IC50 [1]: 13 nM
- ED50 [2, 4]: 1.6 mg/kg
- IC50 [3]: 155 nM

Structure (SMILES): CC(C)[C@H](NC(=O)c1noc2ccccc12)C(=O)N1CCC[C@H]1C(=O)N[C@H](C(=O)C(F)(F)F)C(C)C [Example 2, N-[(1S)-2-((2S)-2-{N-[(1S)-3,3,3-trifluoro-1-(methylethyl)-2-oxopropyl]carbamoyl}pyrrolidinyl)-1-(methylethyl)-2-oxoethyl](benzo [d]isoxazol-3-yl)carboxamide]
- IC50 [1]: 8.1 nM
- ED50 [2, 4]: 0.86 mg/kg
- IC50 [3]: 215 nM

Structure (SMILES): Cc1noc(C)c1C(=O)N[C@H](C(=O)N1CCC[C@H]1C(=O)N[C@H](C(=O)C(F)(F)F)C(C)C)C(C)C [Example 1, N-[(1S)-2-((2S)-2-{N-[(1S)-3,3,3-trifluoro-1-(methylethyl)-2-oxopropyl]carbamoyl}pyrrolidinyl)-1-(methylethyl)-2-oxoethyl](3,5-dimethylisoxazol-4-yl)carboxamide]
- IC50 [1]: 17 nM
- ED50 [2, 4]: 2.6 mg/kg
- IC50 [3]: 154 nM

Structure (SMILES): Cc1cc(C(=O)N[C@H](C(=O)N2CCC[C@H]2C(=O)N[C@H](C(=O)C(F)(F)F)C(C)C)C(C)C)no1 [Example 15, N-[(1S)-2-((2S)-2-{N-[(1S)-3,3,3-trifluoro-1-(methylethyl)-2-oxopropyl]carbamoyl}pyrrolidinyl)-1-(methylethyl)-2-oxoethyl]-(5-methylisoxazol-3-yl)carboxamide]
- IC50 [1]: 24 nM
- ED50 [2, 4]: 0.62 mg/kg
- Acute toxicity: death or not (ICR mice): all were alive

Structure (SMILES): COc1cc(C(=O)N[C@H](C(=O)N2CCC[C@H]2C(=O)N[C@H](C(=O)C(F)(F)F)C(C)C)C(C)C)on1 [Example 11, N-[(1S)-2-((2S)-2-{N-[(1S)-3,3,3-trifluoro-1-(methylethyl)-2-oxopropyl]carbamoyl}pyrrolidinyl)-1-(methylethyl)-2-oxoethyl]-(3-methoxyisoxazol-5-yl)carboxamide]
- IC50 [1]: 27 nM
- ED50 [2, 4]: 1.5 mg/kg
- Acute toxicity: death or not (ICR mice): all were alive

Structure (SMILES): Cc1c(C(=O)N[C@H](C(=O)N2CCC[C@H]2C(=O)N[C@H](C(=O)C(F)(F)F)C(C)C)C(C)C)cnn1-c1ccccc1 [Example 10, N-[(1S)-2-((2S)-2-{N-[(1S)-3,3,3-trifluoro-1-(methylethyl)-2-oxopropyl]carbamoyl}pyrrolidinyl)-1-(methylethyl)-2-oxoethyl]-(5-methyl-1-phenylpyrazol-4-yl)carboxamide]
- IC50 [1]: 10 nM
- ED50 [2, 4]: 1.1 mg/kg
- Acute toxicity: death or not (ICR mice): all were alive

Structure (SMILES): CCc1noc(C)c1C(=O)N[C@H](C(=O)N1CCC[C@H]1C(=O)N[C@H](C(=O)C(F)(F)F)C(C)C)C(C)C [Example 4, N-[(1S)-2-((2S)-2-{N-[(1S)-3,3,3-trifluoro-1-(methylethyl)-2-oxopropyl]carbamoyl}pyrrolidinyl)-1-(methylethyl)-2-oxoethyl]-(3-ethyl-5-methylisoxazol-4-yl)carboxamide]
- IC50 [1]: 17 nM
- ED50 [2, 4]: 2.5 mg/kg

Structure (SMILES): Cc1c(C(=O)N[C@H](C(=O)N2CCC[C@H]2C(=O)N[C@H](C(=O)C(F)(F)F)C(C)C)C(C)C)cnn1-c1ccc(Cl)cc1 [Example 38, N-[(1S)-2-((2S)-2-{N-[(1S)-3,3,3-trifluoro-1-(methylethyl)-2-oxopropyl]carbamoyl}pyrrolidinyl)-1-(methylethyl)-2-oxoethyl]-[1-(4-chlorophenyl)-5-methylpyrazol-4-yl]carboxamide]
- IC50 [1]: 8.3 nM
- Pulmonary hemorrhage inhibitory rate (%) [2]: 63%

Structure (SMILES): CC(C)Oc1cc(C(=O)N[C@H](C(=O)N2CCC[C@H]2C(=O)N[C@H](C(=O)C(F)(F)F)C(C)C)C(C)C)on1 [Example 12, N-[(1S)-2-((2S)-2-{N-[(1S)-3,3,3-trifluoro-1-(methylethyl)-2-oxopropyl]carbamoyl}pyrrolidinyl)-1-(methylethyl)-2-oxoethyl]-[3-(methylethoxy)isoxazol-5-yl]carboxamide]
- IC50 [1]: 16 nM
- Pulmonary hemorrhage inhibitory rate (%) [2]: 66%

Structure (SMILES): CC(C)[C@H](NC(=O)c1c[nH]cn1)C(=O)N1CCC[C@H]1C(=O)N[C@H](C(=O)C(F)(F)F)C(C)C [Comparative compound, N-[(1S)-2-((2S)-2-{N-[(1S)-3,3,3-trifluoro-1-(methylethyl)-2-oxopropyl]carbamoyl}pyrrolidinyl)-1-(methylethyl)-2-oxoethyl](imidazol-4-yl)carboxamide, reference compound]
- IC50 [1]: 78 nM
- Pulmonary hemorrhage inhibitory rate (%) [2]: 18%
- Inhibitory activity on pulmonary hemorrhage ED50 [2, 4]: >10 mg/kg
